Measured values from paper PMC8305076, “Comprehensive Evaluation of Biological Effects of Pentathiepins on Various Human Cancer Cell Lines and Insights into Their Mode of Action” (International Journal of Molecular Sciences, 2021).
Like-named read-outs stand apart in the source and are kept apart here.

What was measured:
HAP-1 and HAP-1.KO.GPx1 = assay: DCFDA ROS assay with GSH added to the medium; format: cell-based, human; conditions: 25 µM pentathiepin plus 3 or 30 µM GSH in medium, 15 min
Procedure: As thiols are supposedly needed for the activation of the pentathiepins, the influence of additional glutathione added to the culture medium during treatment on the intracellular ROS levels was assessed. In these experiments, 3 or 30 µM of GSH were added to the medium containing 25 µM of pentathiepin or solvent, respectively (Figure 9).
In order to quantify intracellular ROS, we performed a flow cytometric assay based on the ROS-sensor 2′,7′-dichlorofluorescein diacetate (DCFDA). […] Per condition, 250,000 cells were seeded in 2 mL of medium per well of a 6-well plate and allowed to adhere overnight. For measurement of acute ROS, the cells were stained with 1 mL of a 20 µM DCFDA-PBS solution for 30 min under standard incubation conditions. […] After removing the solution and washing again with PBS, the cells were detached by using 0.5 mL of a diluted trypsin/EDTA-PBS solution (25%) and harvested with 1 mL of culture medium by carefully rinsing the wells. The cell suspension was transferred to 1.5 mL tubes, centrifuged for 5 min at 500× g, and washed with 1 mL of PBS. After removing the supernatant, each pellet was resuspended in 0.5 mL of PBS for measurement via the MACSquant Analyzer 10 at λEx/Em = 488/530 nm. Relative ROS levels resulting from treatment with pentathiepin were calculated by relating the fluorescence intensity of treated samples to the negative control. For the experiments covering periods of 24 and 48 h, the cells were incubated with the compounds first and stained with DCFDA afterwards. To assess the influence of additional GSH, we included 3 or 30 µM GSH to the medium containing 25 µM of pentathiepin, and the protocol was followed as described.

bovine erythrocyte GPx1 = target: T1, bovine erythrocyte GPx1 (Bos taurus, UniProt P00435); assay: GPx1 enzyme activity assay (NADPH-coupled, t-BHP substrate); format: biochemical; set-up: key to GPx1 inhibition: no impact (0); weak impact (+); strong impact (++); conditions: for IC50: n ≥ 3; for GPx1 inhibition: summary grade
T1 construct: the isolated enzyme from bovine erythrocytes; purchased Sigma-Aldrich (Taufkirchen, Germany); host or cells: isolated from bovine erythrocytes
T1 sequence (P00435 1-205): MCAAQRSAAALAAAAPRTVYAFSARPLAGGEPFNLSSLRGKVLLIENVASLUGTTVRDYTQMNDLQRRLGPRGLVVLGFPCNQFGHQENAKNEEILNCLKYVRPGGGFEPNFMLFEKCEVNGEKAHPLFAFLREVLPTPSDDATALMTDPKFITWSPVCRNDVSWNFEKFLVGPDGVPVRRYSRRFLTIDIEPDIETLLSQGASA
Text: The inhibition of GPx1 by pentathiepins has already been reported by us previously. […] The resulting glutathione disulfide (GSSG) was reduced back to GSH by glutathione reductase (GR), thereby converting NADPH to NADP^+, which can be photometrically monitored at λ = 340 nm. The rate of NADPH consumption was used to quantify GPx1 enzyme activity. Dose-response graphs are presented in Figure 5a, and the corresponding IC50 values in Table 1. Relative IC50 describing the half-maximal inhibition of the enzyme were derived from the inflection point of the sigmoidal shaped graphs. Absolute IC50 was calculated via interpolation of the standard curve resulting in the concentration at which 50% of the GPx1 was inhibited.
The potential of the pentathiepins to inhibit the GPx1 was assessed with an enzymatic assay as described previously. It is based on the catalytic cycle of the enzyme coupled to an NADPH detection reaction. Here, a bovine erythrocyte GPx1 with a sequence similarity of 87% to the human homolog was used for reasons of affordability. The GPx1 was treated with either vehicle (solvent DMF) or the respective pentathiepin, and the reaction started by addition of tert-butylhydroperoxide (t-BHP). For the assay, all solutions were prepared with potassium phosphate buffer (50 mM, pH 7.4, EDTA 1.1 mM, Triton-X 0.01%), except for the inhibitors and t-BHP, which were diluted in DMF or water, respectively. First, 180 µL of a 0.125 U/mL GPx1 solution and 30 µL of a serial dilution of the putative inhibitor dissolved in DMF were added in triplicate to the wells of a UV-transparent 96-well plate. As a negative control, only DMF was appliedat the same dilution as the inhibitor solution.. All reagents including the GPx1 solution were pipetted. Then, 30 µL of a GSH solution (2.5 mM) and 30 µL of a GR/NADPH solution (2 U/mL; 2.0 mM) were added per well. The reaction was started by adding 30 µL of a t-BHP solution (5.0 mM). […] GPx1 activity was indirectly measured by monitoring the decrease of NADPH at λ = 340 nm for 30 min every 15 s at room temperature. The GPx1 activity of the treated samples was related to the solvent treated control and the relative activities analyzed in Prism 7 (GraphPad) via dose–response graphs and the calculation of the inflection point corresponding to the relative IC50 (half-maximal inhibitory concentration). The relative IC50 corresponds to the concentration at which half of the effect of the test compound is achieved. An absolute IC50, where 50% of the enzyme is inhibited, was calculated via interpolation of the sigmoidal graph.

[1] = absolute IC50 (interpolation, 50% of GPx1 inhibited), read-out: Abs. IC50 (SD)
[2] = relative IC50 (inflection point of dose-response graph), t-BHP substrate, read-out: Rel. IC50 (CI 95%)
[3] = residual GPx1 activity at highest tested concentration of 12.5 µM

| Structure (SMILES) | IC50 (bovine erythrocyte GPx1; [1]) [nM] | IC50 (bovine erythrocyte GPx1; [2]) [nM] | remaining activity at 12.5 µM (bovine erythrocyte GPx1; [3]) [%] | GPx1 inhibition (bovine erythrocyte GPx1) | decrease of the activity of the bovine GPx (bovine erythrocyte GPx1; at 12.5 µM) [%] | Residual Activity (%) (bovine erythrocyte GPx1; residual GPx1 activity at highest tested concentration of 12.5 µM, 12.5 µM) | effect of added GSH on intracellular ROS (HAP-1 and HAP-1.KO.GPx1) |
| --- | --- | --- | --- | --- | --- | --- | --- |
| CCOc1c2c(c3ccc(C(=O)N4CCN(S(=O)(=O)c5ccc(C)cc5)CC4)cn13)SSSSS2 [Compound 6, (6-Ethoxy-[1,2,3,4,5]pentathiepino[6,7-a]indolizin-9-yl)(4-tosylpiperazinyl)methanone] | > 12500 | > 12500 | 53.3 | 0 | ≤ 50 |  | tendency toward decreased oxidative stress |
| CCOc1c2c(c3ccc(C(=O)N4CCCCC4)cn13)SSSSS2 [Compound 2, (6-Ethoxy-[1,2,3,4,5]pentathiepino[6,7-a]indolizin-9-yl)(piperidinyl)methanone] | 3250 | 2280 | 27.5 | + |  |  | roughly doubling the effect of the compound alone |
| CCOc1c2c(c3ccc(C(=O)N4CCN(C(=O)c5ccc(F)cc5)CC4)cn13)SSSSS2 [Compound 5, (6-Ethoxy-[1,2,3,4,5]pentathiepino[6,7-a]indolizin-9-yl)(4-(4-fluorobenzoyl)piperazinyl)methanone] | 1170 | 630 | 28.7 | ++ |  |  | roughly doubling the effect of the compound alone |
| CCOc1c2c(c3cnc4[nH]c(-c5ccc(OC)cc5)cc4n13)SSSSS2 [Compound 1, 11-Ethoxy-2-(4-methoxyphenyl)-3H-[1,2,3,4,5]pentathiepino[6′,7′:3,4]pyrrolo[1,2-a]pyrrolo[2,3-e]pyrazine] | 1490 | 920 | 16 | ++ |  | 16.4 | No change was observed |

The next lines start with results.

| IC50 (bovine erythrocyte GPx1; [1]) [nM] | IC50 (bovine erythrocyte GPx1; [2]) [nM] | remaining activity at 12.5 µM (bovine erythrocyte GPx1; [3]) [%] | GPx1 inhibition (bovine erythrocyte GPx1) | decrease of the activity of the bovine GPx (bovine erythrocyte GPx1; at 12.5 µM) [%] | Residual Activity (%) (bovine erythrocyte GPx1; residual GPx1 activity at highest tested concentration of 12.5 µM, 12.5 µM) | Structure (SMILES) | effect of added GSH on intracellular ROS (HAP-1 and HAP-1.KO.GPx1) |
| --- | --- | --- | --- | --- | --- | --- | --- |
| 750 | 600 | 27.9 | ++ |  |  | CCOc1c2c(c3ccc(C(=O)N(CC)CC)cn13)SSSSS2 [Compound 4, 6-Ethoxy-N,N’-diethyl-[1,2,3,4,5]pentathiepino[6,7-a]indolizine-9-carboxamide] | an ascending trend was observed but not determined as statistically significant |
| 910 | 560 | 29 | ++ |  |  | CCOc1c2c(c3ccc(C(=O)N4CCOCC4)cn13)SSSSS2 [Compound 3, (6-Ethoxy-[1,2,3,4,5]pentathiepino[6,7-a]indolizin-9-yl)(morpholino)methanone] | tendency toward decreased oxidative stress |
